Test results from US9663439B2, “Aildenafil citrate crystal form O, preparation method and use thereof” (priority 2010, dated 2017).
Counter-ions that a name gives are not always drawn.

What was measured:
[1] = test system: castrated mice; assay: Determination for sexual function of castrated mice; assay type: in vivo, Kunming strain mouse; conditions: 15 mg/kg^−1, ig, 60 min after feeding the drug
Text: Pharmacodynamic study: determination for sexual function of castrated mice 60 Kunming strain mouse (feeding 60 mouse with 18 g to 22 g weight in the same period) are randomly divided into 6 groups, each 10 mouse per group, wherein, 5 groups of mouse are implemented with bilateral orchidectomy under ether anesthesia state to have castration treatment, and the rest one group of mouse are only implemented with surgical separation, without removing the testicles, which can be taken as a sham operation control group. Each group of mouse are fed in cage, and are tested after 3 d. The sham operation control group and the model control group are fed with 0.5% CMC, […] crystal form O, the positive control group is fed with 6 mg·kg^−1 of Sildenafil; all are ig delivery modes, and the dose volumes are all 10 ml·kg^−1. Putting the single male mice in the cage 60 min after feeding the drug, and adding one female mice in each cage, recording the time that the male mice firstly catches the female mice since the female mice is put in the cage (namely, the capture incubation period), and recording the back-climbing times of the male mice within 30 min.

[2] = Influencing factor test (high temperature, high humidity, illumination); assay type: physicochemical
[3] = High-temperature test (first line; 60+/−2° C.), 0 month
[4] = High-temperature test (first line; 60+/−2° C.), 0.5 month
[5] = High-temperature test (first line; 60+/−2° C.), 1 month
[6] = High-temperature test (second line so named), 0 month
[7] = High-temperature test (second line so named), 0.5 month
[8] = High-temperature test (second line so named), 1 month
[9] = Illumination test (4500 lx+/−500 lx), 0 month
[10] = Illumination test (4500 lx+/−500 lx), 0.5 month
[11] = Illumination test (4500 lx+/−500 lx), 1 month
[12] = high light (4500 lx+/−500 lx), high temperature (60+/−2° C.), high humidity (RH 92.5%), 0 to 1 month

In the case of `CCCc1nn(C)c2c(=O)[nH]c(-c3cc(S(=O)(=O)N4C[C@@H](C)N[C@@H](C)C4)ccc3OCC)nc12` [Aildenafil citrate crystal form O], the “capture incubation period shortened” value [1] was 201%, the capture times increased ([1]; within 30 min) was 4.4 times and the Appearance [2, 3] was “White”. For the same molecule, the “Contents (HPLC area normalization method)” value [2, 3] was 99.96%, the Related articles [2, 3] was 0.04% and the Appearance [2, 4] was “White”. The “Contents (HPLC area normalization method)” value [2, 4] was 99.96%, the Infrared absorption spectrum [2, 4] was “Unchanged” and the PXRD [2, 4] was “Unchanged”. The Related articles [2, 4] was 0.04%, the Appearance [2, 5] was “White” and the “Contents (HPLC area normalization method)” value [2, 5] was 99.95%. The Infrared absorption spectrum [2, 5] was “Unchanged”, the PXRD [2, 5] was “Unchanged” and the Related articles [2, 5] was 0.04%. The Appearance [2, 6] was “White”, the “Contents (HPLC area normalization method)” value [2, 6] was 99.96% and the Related articles [2, 6] was 0.04%. The Appearance [2, 7] was “White”, the “Contents (HPLC area normalization method)” value [2, 7] was 99.95% and the Infrared absorption spectrum [2, 7] was “Unchanged”. The PXRD [2, 7] was “Unchanged”, the Related articles [2, 7] was 0.04% and the Appearance [2, 8] was “White”. For the same molecule, the “Contents (HPLC area normalization method)” value [2, 8] was 99.96%, the Infrared absorption spectrum [2, 8] was “Unchanged” and the PXRD [2, 8] was “Unchanged”. For the same molecule, the Related articles [2, 8] was 0.05%, the Appearance [2, 9] was “White” and the “Contents (HPLC area normalization method)” value [2, 9] was 99.96%. For the same molecule, the Related articles [2, 9] was 0.04%, the Appearance [2, 10] was “White” and the “Contents (HPLC area normalization method)” value [2, 10] was 99.96%. The Infrared absorption spectrum [2, 10] was “Unchanged”, the PXRD [2, 10] was “Unchanged” and the Related articles [2, 10] was 0.04%. The Appearance [2, 11] was “White”, the “Contents (HPLC area normalization method)” value [2, 11] was 99.96% and the Infrared absorption spectrum [2, 11] was “Unchanged”. For the same molecule, the PXRD [2, 11] was “Unchanged”, the Related articles [2, 11] was 0.04% and the “chemical stability (related articles and contents)” value [2, 12] was “excellent chemical stability”. For the same molecule, the “crystal form stability (appearance, PXRD, infrared absorption spectrum)” value [2, 12] was “stable”.
